ChEMBL document CHEMBL1250538 (Bioorg Med Chem, 2010)
pIC50: −log10 of the molar value.

Columns and labels:
[1] = Antiproliferative activity against mouse M-NFS-60 cells; type: functional, cell-based
K562 = test: Antiproliferative activity against human K562 cells; type: functional, cell-based
[2] = Antiproliferative activity against human GIST882 cells; type: functional, cell-based
[3] = Antiproliferative activity mouse BA/F3 cells in presence of interleukin 3; type: functional, cell-based; conditions: BaF3
[4] = Antiproliferative activity against PDGFRbeta transfected mouse BA/F3 cells; type: functional, cell-based; conditions: BaF3
[5] = Antiproliferative activity against BCR-ABL1 transfected mouse BA/F3 cells; type: functional, cell-based; conditions: BaF3
Homo sapiens [6] = organism: Homo sapiens; test: Toxicity in chronic CML patient assessed as maximum tolerated dose; type: organism-based; conditions: in vivo
Homo sapiens [7] = organism: Homo sapiens; test: Toxicity in chronic CML patient assessed as cytogenetic response; type: organism-based; conditions: in vivo

Row | SMILES | pIC50 [1] | pIC50 (K562) | pIC50 [2] | pIC50 [3] | pIC50 [4] | pIC50 [5] | MTD (Homo sapiens [6]) | Activity (Homo sapiens [7])
1 | Cc1cn(-c2cc(NC(=O)c3ccc(C)c(Nc4nccc(-c5cccnc5)n4)c3)cc(C(F)(F)F)c2)cn1 [NILOTINIB] | 6.08 | 7.68 | 6.82 | < 5.00 | 7.21 | 7.60 | – | –
2 | Cc1ccc(NC(=O)c2ccc(CN3CCN(C)CC3)cc2)cc1Nc1nccc(-c2cccnc2)n1 [IMATINIB] | 6.45 | 6.61 | 6.97 | 5.02 | 7.41 | 6.17 | 400 mg | Non-toxic
